Measured values published in PubChem BioAssay (NCI).
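Where inhibition never reached the appropriate level, the endpoint shown equals the highest concentration tested. Otherwise, values were interpolated linearly from a five-concentration, 48-hour dose response in 96-well plates. GI50 = concentration required for 50% inhibition of growth. At the TGI there is no net growth.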

Experiments:
Assay in all cases: NCI anticancer screen, dose series, 48 h
SN12C renal = system: SN12C renal
OVCAR-8 ovarian = system: OVCAR-8 ovarian
T-47D breast = system: T-47D breast
HT29 colon = system: HT29 colon
NCI-H522 lung = system: NCI-H522 lung
BT-549 breast = system: BT-549 breast
UO-31 renal = system: UO-31 renal
DU-145 prostate = system: DU-145 prostate
HS 578T breast = system: HS 578T breast
HOP-62 NSCLC = system: HOP-62 NSCLC
SNB-75 CNS = system: SNB-75 CNS
MDA-MB-231 breast = system: MDA-MB-231 breast
EKVX NSCLC = system: EKVX NSCLC
SW-620 colon = system: SW-620 colon
OVCAR-3 ovarian = system: OVCAR-3 ovarian
NCI-H226 lung = system: NCI-H226 lung
HCC-2998 colon = system: HCC-2998 colon
HL-60(TB) leukemia = system: HL-60(TB) leukemia
SNB-19 CNS = system: SNB-19 CNS
SK-OV-3 ovarian = system: SK-OV-3 ovarian
SR leukemia = system: SR leukemia
SF-268 CNS = system: SF-268 CNS
NCI-H23 lung = system: NCI-H23 lung
NCI/ADR-RES ovarian = system: NCI/ADR-RES ovarian
SK-MEL-28 melanoma = system: SK-MEL-28 melanoma
RXF 393 renal = system: RXF 393 renal
SF-295 CNS = system: SF-295 CNS
HCT-15 colon = system: HCT-15 colon
SK-MEL-5 melanoma = system: SK-MEL-5 melanoma
LOX IMVI melanoma = system: LOX IMVI melanoma
MOLT-4 leukemia = system: MOLT-4 leukemia
U251 CNS = system: U251 CNS
HCT-116 colon = system: HCT-116 colon
UACC-62 melanoma = system: UACC-62 melanoma
OVCAR-5 ovarian = system: OVCAR-5 ovarian
TK-10 renal = system: TK-10 renal
M14 melanoma = system: M14 melanoma
ACHN renal = system: ACHN renal
PC-3 prostate = system: PC-3 prostate
KM12 colon = system: KM12 colon
786-0 renal = system: 786-0 renal
IGROV1 ovarian = system: IGROV1 ovarian
SK-MEL-2 melanoma = system: SK-MEL-2 melanoma
SF-539 CNS = system: SF-539 CNS
HOP-92 NSCLC = system: HOP-92 NSCLC
A549 NSCLC = system: A549 NSCLC
CCRF-CEM leukemia = system: CCRF-CEM leukemia
A498 renal = system: A498 renal
NCI-H460 lung = system: NCI-H460 lung
MCF7 breast = system: MCF7 breast
OVCAR-4 ovarian = system: OVCAR-4 ovarian

With `CCOC(=O)c1cc(C(=O)c2cc(OC)cc(OC)c2)n2nc(C)ccc12` the GI50 (SN12C renal) was 692 nM, the TGI (SN12C renal) was over 100000 nM and the GI50 (OVCAR-8 ovarian) was 1090 nM. The TGI (OVCAR-8 ovarian) was over 100000 nM, the GI50 (T-47D breast) was 501 nM and the TGI (T-47D breast) was over 100000 nM. The GI50 (HT29 colon) was 401 nM, the TGI (HT29 colon) was over 100000 nM and the GI50 (NCI-H522 lung) was 303 nM. For the same compound, the TGI (NCI-H522 lung) was over 100000 nM, the GI50 (BT-549 breast) was 1990 nM and the TGI (BT-549 breast) was over 100000 nM. It also gave a GI50 (UO-31 renal) of 698 nM, a TGI (UO-31 renal) of over 100000 nM and a GI50 (DU-145 prostate) of 906 nM. The TGI (DU-145 prostate) was over 100000 nM, the GI50 (HS 578T breast) was 284 nM and the TGI (HS 578T breast) was over 100000 nM. It also gave a GI50 (HOP-62 NSCLC) of 691 nM, a TGI (HOP-62 NSCLC) of over 100000 nM and a GI50 (SNB-75 CNS) of 384 nM. For the same compound, the TGI (SNB-75 CNS) was over 100000 nM, the GI50 (MDA-MB-231 breast) was 1700 nM and the TGI (MDA-MB-231 breast) was over 100000 nM. The GI50 (EKVX NSCLC) was 975 nM, the TGI (EKVX NSCLC) was over 100000 nM and the GI50 (SW-620 colon) was 280 nM. The TGI (SW-620 colon) was over 100000 nM, the GI50 (OVCAR-3 ovarian) was 289 nM and the TGI (OVCAR-3 ovarian) was 2110 nM. For the same compound, the GI50 (NCI-H226 lung) was over 100000 nM, the TGI (NCI-H226 lung) was over 100000 nM and the GI50 (HCC-2998 colon) was 3340 nM. For the same compound, the TGI (HCC-2998 colon) was over 100000 nM, the GI50 (HL-60(TB) leukemia) was 248 nM and the TGI (HL-60(TB) leukemia) was 797 nM. The GI50 (SNB-19 CNS) was 752 nM, the TGI (SNB-19 CNS) was over 100000 nM and the GI50 (SK-OV-3 ovarian) was 878 nM. It also gave a TGI (SK-OV-3 ovarian) of over 100000 nM, a GI50 (SR leukemia) of 75.9 nM and a TGI (SR leukemia) of over 100000 nM. For the same compound, the GI50 (SF-268 CNS) was 676 nM, the TGI (SF-268 CNS) was over 100000 nM and the GI50 (NCI-H23 lung) was 1290 nM. The TGI (NCI-H23 lung) was over 100000 nM, the GI50 (NCI/ADR-RES ovarian) was 308 nM and the TGI (NCI/ADR-RES ovarian) was 14800 nM. For the same compound, the GI50 (SK-MEL-28 melanoma) was over 100000 nM, the TGI (SK-MEL-28 melanoma) was over 100000 nM and the GI50 (RXF 393 renal) was 239 nM. For the same compound, the TGI (RXF 393 renal) was 3160 nM, the GI50 (SF-295 CNS) was 311 nM and the TGI (SF-295 CNS) was 38300 nM. For the same compound, the GI50 (HCT-15 colon) was 280 nM, the TGI (HCT-15 colon) was over 100000 nM and the GI50 (SK-MEL-5 melanoma) was 276 nM. It also gave a TGI (SK-MEL-5 melanoma) of over 100000 nM, a GI50 (LOX IMVI melanoma) of 493 nM and a TGI (LOX IMVI melanoma) of over 100000 nM. For the same compound, the GI50 (MOLT-4 leukemia) was 527 nM, the TGI (MOLT-4 leukemia) was over 100000 nM and the GI50 (U251 CNS) was 549 nM. For the same compound, the TGI (U251 CNS) was over 100000 nM, the GI50 (HCT-116 colon) was 331 nM and the TGI (HCT-116 colon) was over 100000 nM. It also gave a GI50 (UACC-62 melanoma) of 477 nM, a TGI (UACC-62 melanoma) of over 100000 nM and a GI50 (OVCAR-5 ovarian) of 2700 nM. It also gave a TGI (OVCAR-5 ovarian) of over 100000 nM, a GI50 (TK-10 renal) of over 100000 nM and a TGI (TK-10 renal) of over 100000 nM. For the same compound, the GI50 (M14 melanoma) was 251 nM, the TGI (M14 melanoma) was over 100000 nM and the GI50 (ACHN renal) was 731 nM. For the same compound, the TGI (ACHN renal) was over 100000 nM, the GI50 (PC-3 prostate) was 317 nM and the TGI (PC-3 prostate) was over 100000 nM. It also gave a GI50 (KM12 colon) of 254 nM, a TGI (KM12 colon) of over 100000 nM and a GI50 (786-0 renal) of 523 nM. For the same compound, the TGI (786-0 renal) was over 100000 nM, the GI50 (IGROV1 ovarian) was 943 nM and the TGI (IGROV1 ovarian) was over 100000 nM. The GI50 (SK-MEL-2 melanoma) was 494 nM, the TGI (SK-MEL-2 melanoma) was over 100000 nM and the GI50 (SF-539 CNS) was 349 nM. The TGI (SF-539 CNS) was 3020 nM, the GI50 (HOP-92 NSCLC) was 446 nM and the TGI (HOP-92 NSCLC) was over 100000 nM. The GI50 (A549 NSCLC) was 766 nM, the TGI (A549 NSCLC) was over 100000 nM and the GI50 (CCRF-CEM leukemia) was 348 nM. It also gave a TGI (CCRF-CEM leukemia) of over 100000 nM, a GI50 (A498 renal) of 388 nM and a TGI (A498 renal) of over 100000 nM. The GI50 (NCI-H460 lung) was 365 nM, the TGI (NCI-H460 lung) was over 100000 nM and the GI50 (MCF7 breast) was 313 nM. For the same compound, the TGI (MCF7 breast) was over 100000 nM, the GI50 (OVCAR-4 ovarian) was 1450 nM and the TGI (OVCAR-4 ovarian) was over 100000 nM.
